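Cells were grown in 96-well plates and exposed to each compound for 48 hours at five concentrations; endpoints were interpolated linearly between bracketing concentrations, or set to the highest concentration if not reached. GI50: concentration for 50% inhibition of growth.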 Activity calls are given as the source filed them. No stated cut-off is given here; in the data, active = GI50 up to about 1.1 µM and inactive = higher.
Key:
Assay in all cases: NCI tumour cell line growth inhibition, 48 h
786-0 = system: 786-0
A498 = system: A498
A549 = system: A549
ACHN = system: ACHN
CAKI-1 = system: CAKI-1
CCRF-CEM = system: CCRF-CEM
COLO 205 = system: COLO 205
DLD-1 = system: DLD-1
DMS-273 = system: DMS-273
EKVX = system: EKVX
HCC 2998 = system: HCC 2998
HCT-116 = system: HCT-116
HCT-15 = system: HCT-15
HL-60 = system: HL-60
HOP-18 = system: HOP-18
HOP-62 = system: HOP-62
HOP-92 = system: HOP-92
HT-29 = system: HT-29
IGROV-1 = system: IGROV-1
K562 = system: K562
KM12 = system: KM12
LOX IMVI = system: LOX IMVI
M14 = system: M14
M19-MEL = system: M19-MEL
MOLT-4 = system: MOLT-4
Malme-3M = system: Malme-3M
NCI-H226 = system: NCI-H226
NCI-H23 = system: NCI-H23
NCI-H460 = system: NCI-H460
OVCAR-3 = system: OVCAR-3
OVCAR-4 = system: OVCAR-4
OVCAR-5 = system: OVCAR-5
OVCAR-8 = system: OVCAR-8
RXF 393 = system: RXF 393
SF-268 = system: SF-268
SF-295 = system: SF-295
SF-539 = system: SF-539
SK-MEL-28 = system: SK-MEL-28
SK-MEL-2 = system: SK-MEL-2
SK-MEL-5 = system: SK-MEL-5
SK-OV-3 = system: SK-OV-3
SN12C = system: SN12C
SNB-19 = system: SNB-19
SNB-75 = system: SNB-75
SNB-78 = system: SNB-78
SW-620 = system: SW-620
TK-10 = system: TK-10
U-251 = system: U-251
UACC-257 = system: UACC-257
UACC-62 = system: UACC-62
UO-31 = system: UO-31
DMS-114 = system: DMS-114
LXFL 529 = system: LXFL 529
NCI-H522 = system: NCI-H522
RPMI-8226 = system: RPMI-8226
SR = system: SR
KM-20L2 = system: KM-20L2

Structure (SMILES): Cc1ccc(C(=O)C#Cc2cnc(O)nc2O)cc1
- GI50 (786-0): 13.4 µM (inactive)
- GI50 (A498): 14.7 µM (inactive)
- GI50 (A549): 18.3 µM (inactive)
- GI50 (ACHN): 15.6 µM (inactive)
- GI50 (CAKI-1): 16.9 µM (inactive)
- GI50 (CCRF-CEM): 3.44 µM (inactive)
- GI50 (COLO 205): 13 µM (inactive)
- GI50 (DLD-1): 10.3 µM (inactive)
- GI50 (DMS-273): 16.1 µM (inactive)
- GI50 (EKVX): 17.2 µM (inactive)
- GI50 (HCC 2998): 12.7 µM (inactive)
- GI50 (HCT-116): 5.94 µM (inactive)
- GI50 (HCT-15): 13.8 µM
- GI50 (HL-60): 11.5 µM (inactive)
- GI50 (HOP-18): 18.6 µM (inactive)
- GI50 (HOP-62): 29.3 µM (inactive)
- GI50 (HOP-92): 18.6 µM (inactive)
- GI50 (HT-29): 21.5 µM (inactive)
- GI50 (IGROV-1): 16.7 µM (inactive)
- GI50 (K562): 6.07 µM (inactive)
- GI50 (KM12): 14.7 µM (inactive)
- GI50 (LOX IMVI): 3.92 µM (inactive)
- GI50 (M14): 13.2 µM (inactive)
- GI50 (M19-MEL): 14.7 µM (inactive)
- GI50 (MOLT-4): 3.41 µM (inactive)
- GI50 (Malme-3M): 5.56 µM (inactive)
- GI50 (NCI-H226): 17.4 µM (inactive)
- GI50 (NCI-H23): 17.5 µM (inactive)
- GI50 (NCI-H460): 16.7 µM (inactive)
- GI50 (OVCAR-3): 13.5 µM (inactive)
- GI50 (OVCAR-4): 21.8 µM (inactive)
- GI50 (OVCAR-5): 18.9 µM (inactive)
- GI50 (OVCAR-8): 12.4 µM (inactive)
- GI50 (RXF 393): 2.99 µM (inactive)
- GI50 (SF-268): 13.1 µM (inactive)
- GI50 (SF-295): 29.2 µM (inactive)
- GI50 (SF-539): 4.09 µM (inactive)
- GI50 (SK-MEL-28): 16.9 µM (inactive)
- GI50 (SK-MEL-2): 14.4 µM (inactive)
- GI50 (SK-MEL-5): 13.6 µM (inactive)
- GI50 (SK-OV-3): 25.2 µM (inactive)
- GI50 (SN12C): 4.55 µM (inactive)
- GI50 (SNB-19): 18.2 µM (inactive)
- GI50 (SNB-75): 19.1 µM (inactive)
- GI50 (SNB-78): 11.9 µM (inactive)
- GI50 (SW-620): 8.69 µM (inactive)
- GI50 (TK-10): 18 µM (inactive)
- GI50 (U-251): 12.9 µM (inactive)
- GI50 (UACC-257): 14.2 µM (inactive)
- GI50 (UACC-62): 10.2 µM (inactive)
- GI50 (UO-31): 17.4 µM (inactive)

Structure (SMILES): Cc1c2cc(Cl)ccc2n2c(=O)c3ccccc3[nH]c(=O)c12
- GI50 (786-0): 41.5 µM (inactive)
- GI50 (CAKI-1): > 100 µM (inactive)
- GI50 (CCRF-CEM): 36.1 µM (inactive)
- GI50 (COLO 205): > 100 µM (inactive)
- GI50 (DLD-1): > 100 µM (inactive)
- GI50 (DMS-114): > 100 µM (inactive)
- GI50 (DMS-273): > 100 µM (inactive)
- GI50 (HCC 2998): > 100 µM (inactive)
- GI50 (HCT-116): 69.2 µM (inactive)
- GI50 (HL-60): > 10 µM (inactive)
- GI50 (HOP-62): 31.2 µM (inactive)
- GI50 (HOP-92): > 100 µM (inactive)
- GI50 (IGROV-1): > 100 µM (inactive)
- GI50 (K562): 50.1 µM (inactive)
- GI50 (LXFL 529): > 100 µM (inactive)
- GI50 (M14): > 100 µM (inactive)
- GI50 (M19-MEL): > 100 µM (inactive)
- GI50 (MOLT-4): 42.9 µM (inactive)
- GI50 (Malme-3M): > 100 µM (inactive)
- GI50 (NCI-H226): > 100 µM (inactive)
- GI50 (NCI-H23): > 100 µM (inactive)
- GI50 (NCI-H522): > 100 µM (inactive)
- GI50 (OVCAR-4): 49.8 µM (inactive)
- GI50 (RPMI-8226): > 100 µM (inactive)
- GI50 (SF-268): > 100 µM (inactive)
- GI50 (SF-539): 78.2 µM (inactive)
- GI50 (SK-MEL-28): > 100 µM (inactive)
- GI50 (SK-MEL-2): > 100 µM (inactive)
- GI50 (SK-OV-3): > 100 µM (inactive)
- GI50 (SNB-75): 59.6 µM (inactive)
- GI50 (SNB-78): > 100 µM (inactive)
- GI50 (SR): 45.3 µM (inactive)
- GI50 (UACC-62): > 100 µM (inactive)
- GI50 (UO-31): > 100 µM (inactive)

Structure (SMILES): CCCCc1c2c(nc3c1CCc1cc4cc5c(nc4nc1-3)-c1nc3c(c(CCCC)c1CC5)CCC/C3=C\c1ccccc1)/C(=C/c1ccccc1)CCC2
- GI50 (786-0): > 100 µM (inactive)
- GI50 (A549): > 100 µM (inactive)
- GI50 (ACHN): > 100 µM (inactive)
- GI50 (CCRF-CEM): > 100 µM (inactive)
- GI50 (COLO 205): > 100 µM (inactive)
- GI50 (DLD-1): > 100 µM (inactive)
- GI50 (DMS-114): > 100 µM (inactive)
- GI50 (DMS-273): > 100 µM (inactive)
- GI50 (EKVX): > 100 µM (inactive)
- GI50 (HCC 2998): > 100 µM (inactive)
- GI50 (HCT-116): > 100 µM (inactive)
- GI50 (HCT-15): > 100 µM
- GI50 (HL-60): > 100 µM (inactive)
- GI50 (HOP-62): > 100 µM (inactive)
- GI50 (HT-29): > 100 µM (inactive)
- GI50 (IGROV-1): > 100 µM (inactive)
- GI50 (K562): > 100 µM (inactive)
- GI50 (KM-20L2): > 100 µM (inactive)
- GI50 (KM12): > 100 µM (inactive)
- GI50 (LOX IMVI): > 100 µM (inactive)
- GI50 (LXFL 529): > 100 µM (inactive)
- GI50 (M14): > 100 µM (inactive)
- GI50 (MOLT-4): > 100 µM (inactive)
- GI50 (Malme-3M): > 100 µM (inactive)
- GI50 (NCI-H226): > 100 µM (inactive)
- GI50 (NCI-H23): > 100 µM (inactive)
- GI50 (NCI-H460): > 100 µM (inactive)
- GI50 (NCI-H522): > 100 µM (inactive)
- GI50 (OVCAR-3): > 100 µM (inactive)
- GI50 (OVCAR-8): > 100 µM (inactive)
- GI50 (RPMI-8226): > 100 µM (inactive)
- GI50 (RXF 393): > 100 µM (inactive)
- GI50 (SF-268): > 100 µM (inactive)
- GI50 (SF-295): > 100 µM (inactive)
- GI50 (SF-539): > 100 µM (inactive)
- GI50 (SK-MEL-28): > 100 µM (inactive)
- GI50 (SK-OV-3): > 100 µM (inactive)
- GI50 (SN12C): > 100 µM (inactive)
- GI50 (SNB-19): > 100 µM (inactive)
- GI50 (SNB-75): > 100 µM (inactive)
- GI50 (SNB-78): > 100 µM (inactive)
- GI50 (SR): > 100 µM (inactive)
- GI50 (SW-620): > 100 µM (inactive)
- GI50 (TK-10): > 100 µM (inactive)
- GI50 (U-251): > 100 µM (inactive)
- GI50 (UACC-257): > 100 µM (inactive)
- GI50 (UACC-62): > 100 µM (inactive)
- GI50 (UO-31): > 100 µM (inactive)
